Tested on: K24384-001-R-PDC complex spheroids, viability
Assay: Anticancer human tumor K24384-001-R-PDC patient-derived pancreatic adenocarcinoma cell line growth inhibition [GQUAD]
Conditions: for IC50: curve of first compound; for viability, T/C: stronger effect = lower value
Procedure, shortened: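 Tumor cells were grown as complex spheroids with HUVEC endothelial cells and mesenchymal stem cells as stroma. G-quadruplex stabilizers were combined with targeted agents over half-log dilutions from near the clinical Cmax, or from 10 microM.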

[1] = second compound 0.0316 µM, first compound 0.0316 µM
[2] = second compound 0.0316 µM, first compound 0.1 µM
[3] = second compound 0.0316 µM, first compound 0.316 µM
[4] = second compound 0.0316 µM, first compound 1 µM
[5] = second compound 0.0316 µM, first compound 3.16 µM
[6] = second compound 0.0316 µM, first compound 10 µM
[7] = second compound 0.1 µM, first compound 0.0316 µM
[8] = second compound 0.1 µM, first compound 0.1 µM
[9] = second compound 0.1 µM, first compound 0.316 µM
[10] = second compound 0.1 µM, first compound 1 µM
[11] = second compound 0.1 µM, first compound 3.16 µM
[12] = second compound 0.1 µM, first compound 10 µM
[13] = second compound 0.316 µM, first compound 0.0316 µM
[14] = second compound 0.316 µM, first compound 0.1 µM
[15] = second compound 0.316 µM, first compound 0.316 µM
[16] = second compound 0.316 µM, first compound 1 µM
[17] = second compound 0.316 µM, first compound 3.16 µM
[18] = second compound 0.316 µM, first compound 10 µM
[19] = second compound 1 µM, first compound 0.0316 µM
[20] = second compound 1 µM, first compound 0.1 µM
[21] = second compound 1 µM, first compound 0.316 µM
[22] = second compound 1 µM, first compound 1 µM
[23] = second compound 1 µM, first compound 3.16 µM
[24] = second compound 1 µM, first compound 10 µM
[25] = second compound 3.16 µM, first compound 0.0316 µM
[26] = second compound 3.16 µM, first compound 0.1 µM
[27] = second compound 3.16 µM, first compound 0.316 µM
[28] = second compound 3.16 µM, first compound 1 µM
[29] = second compound 3.16 µM, first compound 3.16 µM
[30] = second compound 3.16 µM, first compound 10 µM
[31] = second compound 10 µM, first compound 0.0316 µM
[32] = second compound 10 µM, first compound 0.1 µM
[33] = second compound 10 µM, first compound 0.316 µM
[34] = second compound 10 µM, first compound 1 µM
[35] = second compound 10 µM, first compound 3.16 µM
[36] = second compound 10 µM, first compound 10 µM
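Further: spheroids exposed to compounds for seven days.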

Work on `COc1cccc2c1C(=O)c1c(O)c3c(c(O)c1C2=O)CC(O)(C(=O)CO)CC3OC1CC(N)C(O)C(C)O1` (stereo unspecified) + Cc1cnc(CNC(=O)c2c(=O)c3ccc(N4CCCN(C)CC4)nc3n3c2sc2ccccc23)cn1 yielded an IC50 (second compound 0.0316 µM) of 280 nM, an IC50 (second compound 0.1 µM) of 167 nM and an IC50 (second compound 0.316 µM) of 85.2 nM. The IC50 (second compound 1 µM) was under 31.6 nM, the IC50 (second compound 3.16 µM) was under 31.6 nM and the IC50 (second compound 10 µM) was under 31.6 nM. For the same molecule, the viability, T/C [1] was 74.3%, the viability, T/C [2] was 62.1% and the viability, T/C [3] was 50.3%. For the same molecule, the viability, T/C [4] was 17.6%, the viability, T/C [5] was 5.43% and the viability, T/C [6] was 5.41%. It also gave a viability, T/C [7] of 71.2%, a viability, T/C [8] of 55% and a viability, T/C [9] of 42.7%. The viability, T/C [10] was 18.8%, the viability, T/C [11] was 6.08% and the viability, T/C [12] was 5.63%. For the same molecule, the viability, T/C [13] was 58.2%, the viability, T/C [14] was 48% and the viability, T/C [15] was 33.3%. For the same molecule, the viability, T/C [16] was 20.6%, the viability, T/C [17] was 4.64% and the viability, T/C [18] was 6.62%. For the same molecule, the viability, T/C [19] was 35.4%, the viability, T/C [20] was 46.6% and the viability, T/C [21] was 35.1%. The viability, T/C [22] was 19.4%, the viability, T/C [23] was 2.42% and the viability, T/C [24] was 3.74%. The viability, T/C [25] was 40%, the viability, T/C [26] was 44.3% and the viability, T/C [27] was 36.1%. For the same molecule, the viability, T/C [28] was 18.7%, the viability, T/C [29] was 0.26% and the viability, T/C [30] was 1.49%. The viability, T/C [31] was 33.3%, the viability, T/C [32] was 25.9% and the viability, T/C [33] was 24.4%. The viability, T/C [34] was 0.41%, the viability, T/C [35] was 0.26% and the viability, T/C [36] was 0.2%.
Molecule `CCCS(=O)(=O)Nc1ccc(F)c(C(=O)c2c[nH]c3ncc(-c4ccc(Cl)cc4)cc23)c1F` + Cc1cnc(CNC(=O)c2c(=O)c3ccc(N4CCCN(C)CC4)nc3n3c2sc2ccccc23)cn1 has an IC50 (second compound 0.0316 µM) of 8050 nM, an IC50 (second compound 0.1 µM) of 6380 nM and an IC50 (second compound 0.316 µM) of over 10000 nM. The IC50 (second compound 1 µM) was under 31.6 nM, the IC50 (second compound 3.16 µM) was under 31.6 nM and the IC50 (second compound 10 µM) was under 31.6 nM. For the same molecule, the viability, T/C [1] was 78%, the viability, T/C [2] was 84.4% and the viability, T/C [3] was 113%. For the same molecule, the viability, T/C [4] was 93.8%, the viability, T/C [5] was 105% and the viability, T/C [6] was 39.5%. It also gave a viability, T/C [7] of 50.8%, a viability, T/C [8] of 84.2% and a viability, T/C [9] of 63.4%. The viability, T/C [10] was 90.9%, the viability, T/C [11] was 90.6% and the viability, T/C [12] was 33.5%. For the same molecule, the viability, T/C [13] was 48.5%, the viability, T/C [14] was 56.8% and the viability, T/C [15] was 62%. For the same molecule, the viability, T/C [16] was 64.8%, the viability, T/C [17] was 65.9% and the viability, T/C [18] was 31.1%. The viability, T/C [19] was 37.2%, the viability, T/C [20] was 36% and the viability, T/C [21] was 33.6%. The viability, T/C [22] was 48.3%, the viability, T/C [23] was 60.2% and the viability, T/C [24] was 29%. It also gave a viability, T/C [25] of 39.4%, a viability, T/C [26] of 35.2% and a viability, T/C [27] of 37.1%. The viability, T/C [28] was 34.6%, the viability, T/C [29] was 39.5% and the viability, T/C [30] was 16.2%. It also gave a viability, T/C [31] of 0.22%, a viability, T/C [32] of 0.41% and a viability, T/C [33] of 0.78%. For the same molecule, the viability, T/C [34] was 0.33%, the viability, T/C [35] was 0.23% and the viability, T/C [36] was 0.18%.
Work on `CC1COCCN1c1cc(C2(S(C)(=N)=O)CC2)nc(-c2ccnc3[nH]ccc23)n1` (stereo unspecified) + Cc1cnc(CNC(=O)c2c(=O)c3ccc(N4CCCN(C)CC4)nc3n3c2sc2ccccc23)cn1 yielded an IC50 (second compound 0.0316 µM) of 2490 nM, an IC50 (second compound 0.1 µM) of 2190 nM and an IC50 (second compound 0.316 µM) of 5270 nM. The IC50 (second compound 1 µM) was under 31.6 nM, the IC50 (second compound 3.16 µM) was under 31.6 nM and the IC50 (second compound 10 µM) was under 31.6 nM. For the same molecule, the viability, T/C [1] was 85.6%, the viability, T/C [2] was 100% and the viability, T/C [3] was 83.5%. It also gave a viability, T/C [4] of 55.7%, a viability, T/C [5] of 55% and a viability, T/C [6] of 30.4%. For the same molecule, the viability, T/C [7] was 69%, the viability, T/C [8] was 90.7% and the viability, T/C [9] was 64.5%. It also gave a viability, T/C [10] of 56.8%, a viability, T/C [11] of 50.5% and a viability, T/C [12] of 39.6%. It also gave a viability, T/C [13] of 57.8%, a viability, T/C [14] of 64.2% and a viability, T/C [15] of 56.1%. The viability, T/C [16] was 52.3%, the viability, T/C [17] was 59.8% and the viability, T/C [18] was 40.1%. It also gave a viability, T/C [19] of 41.5%, a viability, T/C [20] of 45.2% and a viability, T/C [21] of 45.3%. The viability, T/C [22] was 42.7%, the viability, T/C [23] was 43.7% and the viability, T/C [24] was 32.5%. The viability, T/C [25] was 41.9%, the viability, T/C [26] was 50.4% and the viability, T/C [27] was 37.8%. It also gave a viability, T/C [28] of 43.1%, a viability, T/C [29] of 37.6% and a viability, T/C [30] of 25.8%. For the same molecule, the viability, T/C [31] was 34.5%, the viability, T/C [32] was 23.2% and the viability, T/C [33] was 31.9%. It also gave a viability, T/C [34] of 35.2%, a viability, T/C [35] of 35.5% and a viability, T/C [36] of 21.6%.

From PubChem BioAssay AID2060483 (Molecular Pharmacology Branch, DTP, NCI, 2025)
